According to ChEMBL document CHEMBL1938328, “A review on coumarins as acetylcholinesterase inhibitors for Alzheimer's disease” (Bioorg Med Chem, 2012):
Where a name gives a salt, the structure may show the parent alone.

Experiments:
Acetylcholinesterase [1] = molecular target: Acetylcholinesterase (Homo sapiens, UniProt P22303); assay: Inhibition of AChE
[2] = Selectivity ratio of IC50 for AChE to IC50 for BChE
Acetylcholinesterase [3] = molecular target: T1, Acetylcholinesterase (Rattus norvegicus, UniProt P37136); assay: Inhibition of AChE in rat brain cortical homogenate; type: tissue-based
T1 sequence (P37136 whole entry): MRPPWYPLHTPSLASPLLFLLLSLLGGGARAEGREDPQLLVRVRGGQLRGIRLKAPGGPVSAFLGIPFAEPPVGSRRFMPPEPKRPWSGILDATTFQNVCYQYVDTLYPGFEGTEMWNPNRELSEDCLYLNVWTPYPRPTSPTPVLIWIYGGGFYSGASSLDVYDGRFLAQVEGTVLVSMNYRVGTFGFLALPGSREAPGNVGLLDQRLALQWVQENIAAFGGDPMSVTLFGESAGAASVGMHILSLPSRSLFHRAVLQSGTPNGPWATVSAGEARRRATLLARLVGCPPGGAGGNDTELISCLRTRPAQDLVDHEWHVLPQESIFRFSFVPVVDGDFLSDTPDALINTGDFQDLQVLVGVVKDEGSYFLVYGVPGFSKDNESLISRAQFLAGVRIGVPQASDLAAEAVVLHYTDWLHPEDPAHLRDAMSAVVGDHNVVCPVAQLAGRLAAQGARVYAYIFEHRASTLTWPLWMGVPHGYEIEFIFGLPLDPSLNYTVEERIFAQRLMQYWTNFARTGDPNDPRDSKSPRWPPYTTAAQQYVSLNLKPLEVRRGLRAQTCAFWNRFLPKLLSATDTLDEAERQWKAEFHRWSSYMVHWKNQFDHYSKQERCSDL

Chain of Acetylcholinesterase (Homo sapiens, UniProt P22303) (P22303 whole entry): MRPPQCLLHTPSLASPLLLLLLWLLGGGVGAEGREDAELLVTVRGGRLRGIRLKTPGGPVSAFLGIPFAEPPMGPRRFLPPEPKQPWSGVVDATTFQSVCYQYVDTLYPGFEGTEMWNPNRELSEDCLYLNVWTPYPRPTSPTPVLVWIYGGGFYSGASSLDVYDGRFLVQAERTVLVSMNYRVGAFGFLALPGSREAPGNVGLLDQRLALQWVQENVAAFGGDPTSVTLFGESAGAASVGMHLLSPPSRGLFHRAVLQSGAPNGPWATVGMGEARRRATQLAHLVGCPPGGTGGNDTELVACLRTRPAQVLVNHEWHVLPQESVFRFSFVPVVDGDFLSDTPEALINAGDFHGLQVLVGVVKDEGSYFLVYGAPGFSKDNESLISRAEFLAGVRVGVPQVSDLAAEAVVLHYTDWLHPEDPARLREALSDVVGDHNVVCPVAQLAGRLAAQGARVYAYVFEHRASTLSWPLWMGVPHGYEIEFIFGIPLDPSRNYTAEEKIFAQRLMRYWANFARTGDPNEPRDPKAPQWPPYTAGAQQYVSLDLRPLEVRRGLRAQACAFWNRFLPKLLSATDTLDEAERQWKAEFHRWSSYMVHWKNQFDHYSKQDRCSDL

| SMILES | IC50 (Acetylcholinesterase [1]) [nM] | Ratio IC50 [2] | IC50 (Acetylcholinesterase [3]) [nM] |
| --- | --- | --- | --- |
| COc1ccccc1NCc1cc(=O)oc2cc3oc4ccccc4c3cc12 | 190 |  |  |
| COc1cc2c(C)c(OC)c(=O)oc2cc1OCCCCOc1cc(O)cc(N(C)C)c1 | 275 |  |  |
| COc1cc2oc(=O)c(OCCCCOc3cc(O)cc(N(C)C)c3)c(C)c2cc1OC | 0.236 | > 300000 |  |
| COc1cc2oc(=O)c(C)c(C)c2cc1OCCCN1CCN(c2ccccc2OC)CC1 [ENSACULIN HYDROCHLORIDE] |  |  | 360 |
